By IC50 is commonly meant the point on the concentration scale where inhibition reaches its midpoint.

A short description of this test: Inhibition of chemotaxis in human MCP1 monocytes.
The molecule `CC(C)C[C@]1(C(=O)NCc2cc(F)cc(C(F)(F)F)c2)CC[C@@H](N2CC[C@]3(C=Cc4ccccc43)[C@@H](C)C2)C1` [(1R,3R)-N-{[3-fluoro-5-(trifluoromethyl)phenyl]methyl}-1-(2-methylpropyl)-3-[(1S,5'R)-5'-methylspiro[indene-1,4'-piperidine]-1'-yl]cyclopentane-1-carboxamide] gave an IC50 of 0.32 nM.

`C[C@H]1CN([C@@H]2CC[C@@](C(=O)NCc3cc(F)cc(C(F)(F)F)c3)(C3CC3)C2)CC[C@]12C=Cc1ccccc12` [(1S,3R)-1-cyclopropyl-N-{[3-fluoro-5-(trifluoromethyl)phenyl]methyl}-3-[(1S,5'R)-5'-methylspiro[indene-1,4'-piperidine]-1'-yl]cyclopentane-1-carboxamide]: half-maximal inhibition (IC50) required 0.23 nM.

The molecule `CC(C)[C@]1(C(=O)NCc2cc(F)cc(C(F)(F)F)c2)CC[C@@H](N2CC[C@]3(C=Cc4ccccc43)[C@@H](C)C2)C1` [(1S,3R)-N-{[3-fluoro-5-(trifluoromethyl)phenyl]methyl}-3-[(1S,5'R)-5'-methylspiro[indene-1,4'-piperidine]-1'-yl]-1-(propan-2-yl)cyclopentane-1-carboxamide] gave a 50% inhibitory concentration (IC50) of 0.15 nM.

Source of the values: BindingDB's records for doi:10.1016/j.bmcl.2007.04.053 (Merck Research Laboratories, 2007).
